Test results reported in the NIST ThermoML archive (doi:10.1016/j.jct.2010.11.007).

Assay: xn = mol fraction of the nth substance listed
Details: Liquid; for speed of sound: Sing-around technique in a fixed-path interferometer; for mass density: Vibrating tube method

C=CC(C)(O)CCC=C(C)C (stereo unspecified) [3,7-dimethyl-1,6-octadien-3-ol] + CCCO
Details | mass density, 283.15 K [kg/m3] | mass density, 298.15 K [kg/m3] | mass density, 313.15 K [kg/m3] | mass density, 328.15 K [kg/m3] | speed of sound, 283.15 K [m/s] | speed of sound, 298.15 K [m/s] | speed of sound, 313.15 K [m/s] | speed of sound, 328.15 K [m/s]
101 kPa, x1 = 0.0533 | – | – | – | – | – | – | 1171.9 | 1121
101 kPa, x1 = 0.0551 | 819.82 | 807.92 | 795.75 | 783.12 | 1274.4 | 1222.4 | – | –
101 kPa, x1 = 0.1051 | 826.23 | 814.32 | 802.06 | 789.69 | 1288.6 | 1236 | 1184.2 | 1132.6
101 kPa, x1 = 0.2014 | 836.56 | 824.59 | 812.16 | 799.39 | 1308.8 | 1255.7 | 1203.6 | 1151
101 kPa, x1 = 0.3032 | – | 832.73 | – | 807.41 | – | – | – | –
101 kPa, x1 = 0.3049 | 845.01 | – | 820.4 | – | 1326.2 | 1272.1 | 1218 | 1165.3
101 kPa, x1 = 0.3869 | 850.24 | 838.05 | 825.47 | – | – | 1281.3 | 1227.7 | –
101 kPa, x1 = 0.3946 | – | – | – | – | 1336.7 | – | – | –
101 kPa, x1 = 0.3947 | – | – | – | 812.99 | – | – | – | 1174.8
101 kPa, x1 = 0.4923 | 855.58 | 843.28 | 830.75 | – | – | – | – | –
101 kPa, x1 = 0.4925 | – | – | – | 817.72 | – | – | – | –
101 kPa, x1 = 0.4951 | – | – | – | – | 1345.4 | 1290.3 | 1236.5 | 1183.1
101 kPa, x1 = 0.5905 | 859.44 | – | 834.56 | – | – | – | – | –
101 kPa, x1 = 0.5917 | – | 847.16 | – | 821.54 | 1350.8 | 1295.7 | 1242.2 | 1189.7
101 kPa, x1 = 0.6818 | – | – | – | 824.42 | – | – | – | –
101 kPa, x1 = 0.6847 | – | – | – | – | 1355.2 | 1301 | 1247.2 | 1193.6
101 kPa, x1 = 0.6895 | 862.58 | – | 837.72 | – | – | – | – | –
101 kPa, x1 = 0.69 | – | 850.31 | – | – | – | – | – | –
101 kPa, x1 = 0.7653 | – | 852.26 | 839.66 | 826.67 | – | – | 1250.9 | 1197
101 kPa, x1 = 0.7685 | 864.67 | – | – | – | 1359 | 1304.8 | – | –
101 kPa, x1 = 0.8735 | 866.97 | 854.67 | 842.05 | 829.08 | 1364.2 | 1309.4 | 1255.2 | 1201.2
101 kPa, x1 = 0.9296 | 868.12 | 855.79 | 843.14 | 830.17 | 1366.3 | 1311.8 | 1258 | 1204.4
101 kPa, x1 = 1 | 869.39 | 857 | 844.29 | 831.31 | 1370.6 | 1315.1 | 1260.8 | 1207.6
20000 kPa, x1 = 0.0582 | 833.8 | 822.8 | 811.8 | 800.4 | – | – | – | –
20000 kPa, x1 = 0.1037 | 839.4 | 828.4 | 817.4 | 806 | – | – | – | –
20000 kPa, x1 = 0.1803 | 847.1 | 836.2 | 825.1 | 813.6 | – | – | – | –
20000 kPa, x1 = 0.3087 | 857.5 | 846.3 | 834.9 | 823.4 | – | – | – | –
20000 kPa, x1 = 0.4104 | 863.5 | 852.3 | 840.7 | 829.1 | – | – | – | –
20000 kPa, x1 = 0.4994 | 867.6 | 856.4 | 844.9 | 833.2 | – | – | – | –
20000 kPa, x1 = 0.5939 | 871.3 | 860 | 848.4 | 836.7 | – | – | – | –
20000 kPa, x1 = 0.7117 | 875.1 | 863.7 | 852.2 | 840.5 | – | – | – | –
20000 kPa, x1 = 0.7777 | 876.8 | 865.5 | 853.9 | 842.2 | – | – | – | –
20000 kPa, x1 = 0.8566 | 878.5 | 867 | 855.5 | 843.8 | – | – | – | –
20000 kPa, x1 = 0.9405 | 880.2 | 868.8 | 857.3 | 845.6 | – | – | – | –
20000 kPa, x1 = 1 | 881.2 | 869.7 | 858.1 | 846.4 | – | – | – | –
25000 kPa, x1 = 0.0582 | 837 | 826.1 | 815.4 | 804.3 | – | – | – | –
25000 kPa, x1 = 0.1037 | 842.5 | 831.7 | 820.9 | 809.7 | – | – | – | –
25000 kPa, x1 = 0.1803 | 850.1 | 839.3 | 828.4 | 817.1 | – | – | – | –
25000 kPa, x1 = 0.3087 | 860.5 | 849.4 | 838.3 | 826.9 | – | – | – | –
25000 kPa, x1 = 0.4104 | 866.4 | 855.4 | 844.1 | 832.7 | – | – | – | –
25000 kPa, x1 = 0.4994 | 870.5 | 859.5 | 848.1 | 836.7 | – | – | – | –
25000 kPa, x1 = 0.5939 | 874.2 | 863 | 851.7 | 840.2 | – | – | – | –
25000 kPa, x1 = 0.7117 | 877.9 | 866.7 | 855.4 | 843.9 | – | – | – | –
25000 kPa, x1 = 0.7777 | 879.6 | 868.5 | 857.1 | 845.6 | – | – | – | –
25000 kPa, x1 = 0.8566 | 881.3 | 870 | 858.7 | 847.2 | – | – | – | –
25000 kPa, x1 = 0.9405 | 883 | 871.8 | 860.4 | 848.9 | – | – | – | –
25000 kPa, x1 = 1 | 884 | 872.7 | 861.3 | 849.8 | – | – | – | –
30000 kPa, x1 = 0.0582 | 839.8 | 829.3 | 818.7 | 807.8 | – | – | – | –
30000 kPa, x1 = 0.1037 | 845.3 | 834.9 | 824.3 | 813.3 | – | – | – | –
30000 kPa, x1 = 0.1803 | 852.9 | 842.5 | 831.7 | 820.7 | – | – | – | –
30000 kPa, x1 = 0.3087 | 863.2 | 852.5 | 841.5 | 830.4 | – | – | – | –
30000 kPa, x1 = 0.4104 | 869.1 | 858.4 | 847.2 | 836 | – | – | – | –
30000 kPa, x1 = 0.4994 | 873.2 | 862.4 | 851.2 | 840 | – | – | – | –
30000 kPa, x1 = 0.5939 | 876.8 | 866 | 854.8 | 843.6 | – | – | – | –
30000 kPa, x1 = 0.7117 | 880.6 | 869.7 | 858.5 | 847.2 | – | – | – | –
30000 kPa, x1 = 0.7777 | 882.2 | 871.4 | 860.2 | 848.9 | – | – | – | –
30000 kPa, x1 = 0.8566 | 883.9 | 872.9 | 861.7 | 850.4 | – | – | – | –
30000 kPa, x1 = 0.9405 | 885.6 | 874.7 | 863.4 | 852.1 | – | – | – | –
30000 kPa, x1 = 1 | 886.6 | 875.6 | 864.3 | 853 | – | – | – | –
35000 kPa, x1 = 0.0582 | 842.8 | 832.4 | 822.1 | 811.3 | – | – | – | –
35000 kPa, x1 = 0.1037 | 848.3 | 837.9 | 827.5 | 816.7 | – | – | – | –
35000 kPa, x1 = 0.1803 | 855.7 | 845.4 | 834.8 | 823.9 | – | – | – | –
35000 kPa, x1 = 0.3087 | 866 | 855.4 | 844.6 | 833.6 | – | – | – | –
35000 kPa, x1 = 0.4104 | 871.9 | 861.2 | 850.4 | 839.3 | – | – | – | –
35000 kPa, x1 = 0.4994 | 875.9 | 865.2 | 854.3 | 843.2 | – | – | – | –
35000 kPa, x1 = 0.5939 | 879.4 | 868.7 | 857.8 | 846.7 | – | – | – | –
35000 kPa, x1 = 0.7117 | 883.2 | 872.4 | 861.5 | 850.4 | – | – | – | –
35000 kPa, x1 = 0.7777 | 884.9 | 874.1 | 863.2 | 852.1 | – | – | – | –
35000 kPa, x1 = 0.8566 | 886.5 | 875.6 | 864.7 | 853.6 | – | – | – | –
35000 kPa, x1 = 0.9405 | 888.2 | 877.3 | 866.4 | 855.2 | – | – | – | –
35000 kPa, x1 = 1 | 889.2 | 878.3 | 867.3 | 856.2 | – | – | – | –
40000 kPa, x1 = 0.0582 | 845.5 | 835.4 | 825.1 | 814.7 | – | – | – | –
40000 kPa, x1 = 0.1037 | 851.1 | 840.9 | 830.7 | 820.1 | – | – | – | –
40000 kPa, x1 = 0.1803 | 858.4 | 848.3 | 837.9 | 827.2 | – | – | – | –
40000 kPa, x1 = 0.3087 | 868.6 | 858.3 | 847.7 | 836.9 | – | – | – | –
40000 kPa, x1 = 0.4104 | 874.6 | 864 | 853.3 | 842.4 | – | – | – | –
40000 kPa, x1 = 0.4994 | 878.5 | 867.9 | 857.3 | 846.4 | – | – | – | –
40000 kPa, x1 = 0.5939 | 882.1 | 871.5 | 860.7 | 849.8 | – | – | – | –
40000 kPa, x1 = 0.7117 | 885.9 | 875.1 | 864.4 | 853.5 | – | – | – | –
40000 kPa, x1 = 0.7777 | 887.5 | 876.8 | 866.1 | 855.1 | – | – | – | –
40000 kPa, x1 = 0.8566 | 889.1 | 878.3 | 867.6 | 856.6 | – | – | – | –
40000 kPa, x1 = 0.9405 | 890.8 | 880 | 869.2 | 858.2 | – | – | – | –
40000 kPa, x1 = 1 | 891.8 | 881 | 870.2 | 859.2 | – | – | – | –
